Results published in patent US11015223B2, “Methods for determining response to a hypomethylating agent” (THE REGENTS OF THE UNIVERSITY OF CALIFORNIA, priority 2013, dated 2021).

System: MDS patients
Assay: Response to treatment by IWG response criteria revised in 2006 (CR/PR/HI = responders)
Assay type: in vivo, human
Settings: for Non-Responders (NR/SD/PD/Died/NE) (%) / Non-Responders (NR/SD/PD/Died/NE) N / Responders (CR/PR/HI) N / Responders (CR/PR/HI) (%): all patients on the treatment
Description: A total of 213 MDS patients treated azacitidine or decitabine were included in this study. Samples were obtained from patients treated at the Dana-Farber Cancer Institute (n=42), the MD Anderson Cancer Center (n=104), and as part of the DACO-020 (ADOPT) clinical trial of decitabine (n=67). All samples were collected with patient consent under IRB-approved protocols in accordance with the Declaration of Helsinki. There were no significant differences in baseline patient characteristics by treatment site (Table 1).
Response to treatment was assessed using IWG response criteria revised in 2006. Patients with either a complete response (CR), partial response (PR), or hematologic improvement (HI) were considered as ‘responders’ (R, n=100, 47%). whereas patients described as having ‘no response’, ‘stable disease’, ‘progressive disease’, ‘death’ before response assessment, or ‘not evaluable’ were considered ‘non-responders’ (NR, […], 53%).
Categorical variables were compared using a Fisher exact test, while continuous variables were compared using a Wilcoxon rank-sum test. A Cochran-Mantel-Haenszel (CMH) test was used to test for differences in response rate by mutational status controlling for treatment. Unadjusted and adjusted logistic regression models were used to predict response to therapy. A stepwise algorithm for logistic regression was also utilized to determine a final model; candidate variables considered for inclusion were all mutations, treatment, IPSS classification, age, and sex. The Hosmer and Lemeshow goodness-of-fit test was used to assess model fit for logistic regression models. Overall survival was calculated from the time of treatment to the time of death from any cause or was censored at the date last known alive. Unadjusted and adjusted Cox regression models were constructed for overall survival. A stepwise regression algorithm for Cox regression models was used including the same candidate variables as in the logistic regression modeling. Classification trees were also created using the Rpart package in R version 2.11.1 to classify responders based on mutational status. Cross-validation was used for tree pruning. All p-values reported are two-sided and considered significant at the 0.05 level. No adjustments were made for multiple hypothesis testing.

Molecule: Nc1ncn([C@H]2C[C@H](O)[C@@H](CO)O2)c(=O)n1 [decitabine, 5-aza-2′-deoxycytidine]
- Non-Responders (NR/SD/PD/Died/NE) (%): (53) %
- Non-Responders (NR/SD/PD/Died/NE) N: 76 N
- Responders (CR/PR/HI) N: 68 N
- Responders (CR/PR/HI) (%) (listed as Dec Alone): 47%
- Responders (CR/PR/HI) (%) (listed as Decitabine Alone): (47) %
- Response (%) (patients with ASXL1 mutation): 42%
- Response N (patients with ASXL1 mutation): 29 N
- Response (%) (patients with ATRX mutation): 25%
- Response N (patients with ATRX mutation): 2 N
- Response (%) (patients with BCOR mutation): 56%
- Response N (patients with BCOR mutation): 9 N
- Response (%) (patients with CBL mutation): 11%
- Response N (patients with CBL mutation): 1 N
- Response (%) (patients with DNMT3A mutation): 36%
- Response N (patients with DNMT3A mutation): 8 N
- Response (%) (patients with ETV6 mutation): 50%
- Response N (patients with ETV6 mutation): 3 N
- Response (%) (patients with EZH2 mutation): 44%
- Response N (patients with EZH2 mutation): 7 N
- Response (%) (patients with IDH1 mutation): 25%
- Response N (patients with IDH1 mutation): 2 N
- Response (%) (patients with IDH2 mutation): 17%
- Response N (patients with IDH2 mutation): 2 N
- Response (%) (patients with JAK2 mutation): 40%
- Response N (patients with JAK2 mutation): 2 N
- Response (%) (patients with KDM3A mutation): 25%
- Response N (patients with KDM3A mutation): 2 N
- Response (%) (patients with KDM6B mutation): 25%
- Response N (patients with KDM6B mutation): 2 N
- Response (%) (patients with KRAS mutation): 20%
- Response N (patients with KRAS mutation): 1 N
- Response (%) (patients with MAML1 mutation): 54%
- Response N (patients with MAML1 mutation): 7 N
- Response (%) (patients with NF1 mutation): 31%
- Response N (patients with NF1 mutation): 4 N
- Response (%) (patients with NOTCH1 mutation): 38%
- Response N (patients with NOTCH1 mutation): 5 N
- Response (%) (patients with NOTCH2 mutation): 58%
- Response N (patients with NOTCH2 mutation): 11 N
- Response (%) (patients with NPM1 mutation): 71%
- Response N (patients with NPM1 mutation): 5 N
- Response (%) (patients with NRAS mutation): 73%
- Response N (patients with NRAS mutation): 11 N
- Response (%) (patients with PHF6 mutation): 50%
- Response N (patients with PHF6 mutation): 5 N
- Response (%) (patients with PRPF8 mutation): 33%
- Response N (patients with PRPF8 mutation): 3 N
- Response (%) (patients with PTPN11 mutation): 17%
- Response N (patients with PTPN11 mutation): 1 N
- Response (%) (patients with RUNX1 mutation): 53%
- Response N (patients with RUNX1 mutation): 16 N
- Response (%) (patients with SCAF11 mutation): 25%
- Response N (patients with SCAF11 mutation): 2 N
- Response (%) (patients with SF3B1 mutation): 36%
- Response N (patients with SF3B1 mutation): 8 N
- Response (%) (patients with SRSF2 mutation): 56%
- Response N (patients with SRSF2 mutation): 14 N
- Response (%) (patients with TET2 mutation): 54%
- Response N (patients with TET2 mutation): 22 N
- Response (%) (patients with TLR1 mutation): 71%
- Response N (patients with TLR1 mutation): 5 N
- Response (%) (patients with TP53 mutation): 47%
- Response N (patients with TP53 mutation): 9 N
- Response (%) (patients with U2AF1 mutation): 50%
- Response N (patients with U2AF1 mutation): 9 N
- Response (%) (patients with ZRSR2 mutation): 44%
- Response N (patients with ZRSR2 mutation): 4 N

Molecule: Decitabine+
- Non-Responders (NR/SD/PD/Died/NE) (%): (56) %
- Non-Responders (NR/SD/PD/Died/NE) N: 15 N
- Responders (CR/PR/HI) (%): (44) %
- Responders (CR/PR/HI) N: 12 N
- Responders (CR/PR/HI) (%) (listed as Dec Plus): 44%
- Response (%) (patients with ASXL1 mutation): 50%
- Response N (patients with ASXL1 mutation): 3 N
- Response (%) (patients with ATRX mutation): 100%
- Response N (patients with ATRX mutation): 1 N
- Response (%) (patients with BCOR mutation): 50%
- Response N (patients with BCOR mutation): 1 N
- Response (%) (patients with CBL mutation): 0 (0) %
- Response N (patients with CBL mutation): 0 (0) N
- Response (%) (patients with DNMT3A mutation): 67%
- Response N (patients with DNMT3A mutation): 4 N
- Response (%) (patients with ETV6 mutation): 0 (0) %
- Response N (patients with ETV6 mutation): 0 (0) N
- Response (%) (patients with EZH2 mutation): 0 (0) %
- Response N (patients with EZH2 mutation): 0 (0) N
- Response (%) (patients with IDH1 mutation): 0 (0) %
- Response N (patients with IDH1 mutation): 0 (0) N
- Response (%) (patients with IDH2 mutation): 0 (0) %
- Response N (patients with IDH2 mutation): 0 (0) N
- Response (%) (patients with JAK2 mutation): 0 (0) %
- Response N (patients with JAK2 mutation): 0 (0) N
- Response (%) (patients with KDM3A mutation): 0 (0) %
- Response N (patients with KDM3A mutation): 0 (0) N
- Response (%) (patients with KDM6B mutation): 100%
- Response N (patients with KDM6B mutation): 3 N
- Response (%) (patients with KRAS mutation): 0 (0) %
- Response N (patients with KRAS mutation): 0 (0) N
- Response (%) (patients with MAML1 mutation): 75%
- Response N (patients with MAML1 mutation): 3 N
- Response (%) (patients with NF1 mutation): 50%
- Response N (patients with NF1 mutation): 1 N
- Response (%) (patients with NOTCH1 mutation): 0 (0) %
- Response N (patients with NOTCH1 mutation): 0 (0) N
- Response (%) (patients with NOTCH2 mutation): 100%
- Response N (patients with NOTCH2 mutation): 5 N
- Response (%) (patients with NPM1 mutation): 100%
- Response N (patients with NPM1 mutation): 1 N
- Response (%) (patients with NRAS mutation): 50%
- Response N (patients with NRAS mutation): 1 N
- Response (%) (patients with PHF6 mutation): 0 (0) %
- Response N (patients with PHF6 mutation): 0 (0) N
- Response (%) (patients with PRPF8 mutation): 0 (0) %
- Response N (patients with PRPF8 mutation): 0 (0) N
- Response (%) (patients with PTPN11 mutation): 67%
- Response N (patients with PTPN11 mutation): 2 N
- Response (%) (patients with RUNX1 mutation): 75%
- Response N (patients with RUNX1 mutation): 3 N
- Response (%) (patients with SCAF11 mutation): 100%
- Response N (patients with SCAF11 mutation): 2 N
- Response (%) (patients with SF3B1 mutation): 50%
- Response N (patients with SF3B1 mutation): 2 N
- Response (%) (patients with SRSF2 mutation): 50%
- Response N (patients with SRSF2 mutation): 2 N
- Response (%) (patients with TET2 mutation): 80%
- Response N (patients with TET2 mutation): 4 N
- Response (%) (patients with TLR1 mutation): 67%
- Response N (patients with TLR1 mutation): 2 N
- Response (%) (patients with TP53 mutation): 42%
- Response N (patients with TP53 mutation): 5 N
- Response (%) (patients with U2AF1 mutation): 0 (0) %
- Response N (patients with U2AF1 mutation): 0 (0) N
- Response (%) (patients with ZRSR2 mutation): 0 (0) %
- Response N (patients with ZRSR2 mutation): 0 (0) N
